Experimental data: PubChem BioAssay AID330 (DTP/NCI, 2004)
Where “and” joins values, the source holds several entries; their conditions need not be identical. Equal entries are not always repeated. Toxic doses and inconclusive results are not listed. The calls were made as follows: active = survival T/C of 150% or more; inactive = T/C below 125% in these data.

Test system: P388 leukemia ip, CD2F1 mice, survival T/C
Experiment: NCI In Vivo Anticancer Drug Screen. Data for tumor model P388 Leukemia (intraperitoneal) in CD2F1 (CDF1) mice
Conditions: endpoint: median survival time, higher = longer survival
Procedure, shortened: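 Mice carrying the transplanted tumor received test compound or vehicle. Survival was recorded in each group, and the value is the treated-group measurement divided by that of the vehicle-treated control group.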

[1] = dose: 60.0 mg/kg/injection, schedule: Q01DX005 (ip), vehicle: Klucel (hydroxypropylcellulose) (HPC)
[2] = dose: 25.0 mg/kg/injection, schedule: Q01DX009 (ip), vehicle: saline with Tween-80
[3] = dose: 50.0 mg/kg/injection, schedule: Q01DX009 (ip), vehicle: saline with Tween-80
[4] = dose: 100.0 mg/kg/injection, schedule: Q01DX009 (ip), vehicle: saline with Tween-80
[5] = dose: 50.0 mg/kg/injection, schedule: Q01DX005 (ip), vehicle: saline with Tween-80
[6] = dose: 100.0 mg/kg/injection, schedule: Q01DX005 (ip), vehicle: saline with Tween-80
[7] = dose: 200.0 mg/kg/injection, schedule: Q01DX005 (ip), vehicle: saline with Tween-80
[8] = dose: 25.0 mg/kg/injection, schedule: Q01DX009 (ip), vehicle: other
[9] = dose: 200.0 mg/kg/injection, schedule: Q01DX009 (ip), vehicle: saline with Tween-80
[10] = dose: 60.0 mg/kg/injection, schedule: Q01DX005 (ip), vehicle: saline with Tween-80

Measured: T/C

CCOC(=O)C1=C(C(=O)c2cccc3ccccc23)C(c2cccc([N+](=O)[O-])c2)C(C(=O)c2cccc3ccccc23)=C(C(=O)OCC)N1
inactive: dose: 15.0 mg/kg/injection, schedule: Q01DX005 (ip), vehicle: Klucel (hydroxypropylcellulose) (HPC) 97 % of control | dose: 30.0 mg/kg/injection, schedule: Q01DX005 (ip), vehicle: Klucel (hydroxypropylcellulose) (HPC) 97 % of control | [1] 99 % of control

CCCOSSOCCC
inactive: [2] 103 % of control | [3] 100 % of control | [4] 99 % of control

Cc1cc(N=Nc2cc(C)c(NC(=O)c3ccc(NC(=O)c4ccc(N)cc4)cc3)cc2C)ccc1N=Nc1ccc2cc(S(=O)(=O)O)cc(S(=O)(=O)O)c2c1
inactive: [5] 110 % of control | [6] 111 % of control | [7] 110 % of control

CSCCC(N)C(=O)O (stereo unspecified)
inactive: dose: 25.0 mg/kg/injection, schedule: Q01DX005 (ip), vehicle: saline 102 % of control | [8] 107 % of control | [2] 103 % of control | dose: 37.5 mg/kg/injection, schedule: Q01DX009 (ip), vehicle: Klucel (hydroxypropylcellulose) (HPC) 122 % of control | dose: 40.0 mg/kg/injection, schedule: Q01DX009 (ip), vehicle: saline with Tween-80 105 % of control | dose: 50.0 mg/kg/injection, schedule: Q01DX005 (ip), vehicle: saline 99 % of control | dose: 50.0 mg/kg/injection, schedule: Q01DX009 (ip), vehicle: other 100 % of control and 107 % of control | [3] 107 % of control | dose: 75.0 mg/kg/injection, schedule: Q01DX009 (ip), vehicle: Klucel (hydroxypropylcellulose) (HPC) 103 % of control | dose: 75.0 mg/kg/injection, schedule: Q01DX009 (ip), vehicle: other 98 % of control and 94 % of control | dose: 80.0 mg/kg/injection, schedule: Q01DX009 (ip), vehicle: saline with Tween-80 100 % of control and 114 % of control | dose: 100.0 mg/kg/injection, schedule: Q01DX005 (ip), vehicle: saline 107 % of control | dose: 100.0 mg/kg/injection, schedule: Q01DX009 (ip), vehicle: other 100 % of control and 107 % of control | [4] 108 % of control | dose: 100.0 mg/kg/injection, schedule: Q01DX009 (ip), vehicle: saline 102 % of control | dose: 150.0 mg/kg/injection, schedule: Q01DX009 (ip), vehicle: other 103 % of control and 106 % of control | dose: 160.0 mg/kg/injection, schedule: Q01DX009 (ip), vehicle: saline with Tween-80 99 % of control and 102 % of control | dose: 200.0 mg/kg/injection, schedule: Q01DX005 (ip), vehicle: saline 101 % of control | dose: 200.0 mg/kg/injection, schedule: Q01DX009 (ip), vehicle: other 110 % of control | dose: 200.0 mg/kg/injection, schedule: Q01DX009 (ip), vehicle: saline 112 % of control | dose: 225.0 mg/kg/injection, schedule: Q01DX009 (ip), vehicle: other 109 % of control | dose: 320.0 mg/kg/injection, schedule: Q01DX009 (ip), vehicle: saline with Tween-80 106 % of control and 97 % of control | dose: 400.0 mg/kg/injection, schedule: Q01DX005 (ip), vehicle: saline 103 % of control | dose: 400.0 mg/kg/injection, schedule: Q01DX009 (ip), vehicle: saline 108 % of control | dose: 800.0 mg/kg/injection, schedule: Q01DX009 (ip), vehicle: saline 108 % of control

CC(C)C1=CC23CCC4C(C)(C(=O)O)CCCC4(C)C2CC1C(C(=O)NCCCN(C)C)C3C(=O)O (stereo unspecified)
inactive: [1] 95 % of control | dose: 120.0 mg/kg/injection, schedule: Q01DX005 (ip), vehicle: Klucel (hydroxypropylcellulose) (HPC) 95 % of control | dose: 240.0 mg/kg/injection, schedule: Q01DX005 (ip), vehicle: Klucel (hydroxypropylcellulose) (HPC) 93 % of control

CC(CN=C(CC(=O)c1ccccc1)c1ccccc1)N=C(CC(=O)c1ccccc1)c1ccccc1.[Cu] (stereo unspecified)
inactive: [3] 100 % of control | [4] 106 % of control | [9] 91 % of control

CCOC(=O)C1CCCCC12Nc1cccc3cccc(c13)N2 (stereo unspecified)
inactive: [5] 95 % of control | [6] 105 % of control | [7] 113 % of control

O=C(NC(CSSCC(NC(=O)OCc1ccccc1)C(=O)O)C(=O)O)OCc1ccccc1 (stereo unspecified)
inactive: dose: 100.0 mg/kg/injection, schedule: Q04DX003 (ip), vehicle: other 100 % of control | dose: 200.0 mg/kg/injection, schedule: Q04DX003 (ip), vehicle: other 100 % of control | dose: 400.0 mg/kg/injection, schedule: Q04DX003 (ip), vehicle: other 100 % of control

COC(=O)C(=O)c1c(C(=O)OC)nc2[nH]n(-c3ccccc3)c(=O)c2c1Cc1ccccc1
inactive: [10] 98 % of control | dose: 120.0 mg/kg/injection, schedule: Q01DX005 (ip), vehicle: saline with Tween-80 100 % of control | dose: 240.0 mg/kg/injection, schedule: Q01DX005 (ip), vehicle: saline with Tween-80 91 % of control

O=c1[nH]c(Sc2ccccn2)ccc1[N+](=O)[O-]
inactive: dose: 6.25 mg/kg/injection, schedule: Q01DX009 (ip), vehicle: Klucel (hydroxypropylcellulose) (HPC) 97 % of control | dose: 12.5 mg/kg/injection, schedule: Q01DX009 (ip), vehicle: Klucel (hydroxypropylcellulose) (HPC) 91 % of control | dose: 25.0 mg/kg/injection, schedule: Q01DX009 (ip), vehicle: Klucel (hydroxypropylcellulose) (HPC) 98 % of control and 92 % of control

COC(C)(C)O/N=C(\C[n+]1ccccc1)c1ccccc1
inactive: dose: 3.13 mg/kg/injection, schedule: Q01DX009 (ip), vehicle: water 100 % of control | dose: 6.25 mg/kg/injection, schedule: Q01DX009 (ip), vehicle: water 104 % of control | dose: 12.5 mg/kg/injection, schedule: Q01DX009 (ip), vehicle: water 114 % of control | dose: 25.0 mg/kg/injection, schedule: Q01DX009 (ip), vehicle: water 105 % of control

CC(C)(C)/C(=N\NC(=O)CCCl)c1ccccc1
inactive: [3] 97 % of control | [4] 97 % of control | [9] 95 % of control

COc1cccc2c1C(=O)c1c(O)c3c(c(O)c1C2=O)CC1(O)CC3OC1(C)OC (stereo unspecified)
inactive: dose: 1.56 mg/kg/injection, schedule: Q01DX009 (ip), vehicle: other 104 % of control | dose: 3.13 mg/kg/injection, schedule: Q01DX009 (ip), vehicle: other 100 % of control | dose: 6.25 mg/kg/injection, schedule: Q01DX009 (ip), vehicle: other 96 % of control | dose: 12.5 mg/kg/injection, schedule: Q01DX009 (ip), vehicle: other 106 % of control | [8] 106 % of control | dose: 25.0 mg/kg/injection, schedule: Q04DX003 (ip), vehicle: water 101 % of control | dose: 50.0 mg/kg/injection, schedule: Q04DX003 (ip), vehicle: water 100 % of control | dose: 100.0 mg/kg/injection, schedule: Q04DX003 (ip), vehicle: water 100 % of control | dose: 200.0 mg/kg/injection, schedule: Q04DX003 (ip), vehicle: water 103 % of control | dose: 400.0 mg/kg/injection, schedule: Q04DX003 (ip), vehicle: water 99 % of control

CCOP1(OCC)(SSC)OC(=O)C(C)S1 (stereo unspecified)
inactive: dose: 5.0 mg/kg/injection, schedule: Q01DX005 (ip), vehicle: saline with Tween-80 108 % of control | dose: 10.0 mg/kg/injection, schedule: Q01DX005 (ip), vehicle: saline with Tween-80 101 % of control | dose: 20.0 mg/kg/injection, schedule: Q01DX005 (ip), vehicle: saline with Tween-80 108 % of control | [10] 94 % of control
